Measured values reported in ChEMBL document CHEMBL5236630, “Discovery of selective platelet-derived growth factor receptor-beta (PDGFR-β) bifunctional small-molecule degraders” (Bioorg Med Chem, 2023).
One block for each compound: values may come before it. Calls of active or inactive are those of the source. The calls are words filed in the database; no cut-off is given here.

Legend:
[1] = test system: HepG2; assay: Antiproliferative activity against human HepG2 cells assessed as reduction in cell viability incubated for 48 hrs by MTT assay; assay type: functional, cell-based; details: HepG2, 48 h
[2] = test system: EA.hy 926; assay: Antiproliferative activity against human EA.hy 926 cells assessed as reduction in cell viability incubated for 48 hrs by MTT assay; assay type: functional, cell-based; details: EA.hy 926, 48 h
[3] = biological target: Platelet-derived growth factor receptor beta (Homo sapiens) (UniProt P09619); assay: Protac activity at PDGFRbeta in human U87 cells assessed as reduction in PDGFRbeta protein level at 0.1 to 10 uM incubated for 48 to 72 hrs by Western blot analysis; assay type: cell-based; details: dose 0.1-10 µM, time 48-72 hrs
[4] = test system: HEK293; assay: Cytotoxicity against human HEK293 cells assessed as reduction in cell viability at 50 uM incubated for 48 hrs by MTT assay; assay type: toxicity, cell-based; details: hek293, 48 h
[5] = biological target: Platelet-derived growth factor receptor beta (Homo sapiens) (UniProt P09619); assay: Protac activity at PDGFRbeta in human U87 cells assessed as increase in VEGFR-2 protein level at 10 uM incubated for 72 hrs by Western blot analysis; assay type: cell-based
[6] = biological target: Platelet-derived growth factor receptor beta (Homo sapiens) (UniProt P09619); assay: Protac activity at PDGFRbeta in human U87 cells assessed as reduction in PDGFRbeta protein level at 10 uM incubated for 72 hrs by Western blot analysis; assay type: cell-based; set-up: scale not given: the % may be the effect or the level left
[7] = biological target: Platelet-derived growth factor receptor beta (Homo sapiens) (UniProt P09619); assay: Protac activity at PDGFRbeta in human U87 cells assessed as reduction in PDGFRbeta protein level at 10 uM incubated for 48 hrs by Western blot analysis; assay type: cell-based
[8] = Antiproliferative activity against human U87 cells assessed as reduction in cell viability incubated for 48 hrs by MTT assay; assay type: functional, cell-based, U-87MG ATCC; details: U-87 MG
[9] = biological target: T1, von Hippel-Lindau disease tumor suppressor/Platelet-derived growth factor receptor beta (Homo sapiens) (UniProt P09619+P40337); assay: Protac activity at VHL/PDGFRbeta in human U87 cells assessed as reduction in PDGFRbeta protein level at 0.1 to 15 uM incubated for 72 hrs by Western blot analysis; assay type: cell-based; details: dose 0.1-15 µM
[10] = Induction of apoptosis in human U87 cells assessed as early apoptotic cells at 0.1 uM incubated for 48 hrs by Annexin-V/PI staining based flow cytometry (Rvb= 2.74%); assay type: functional, U-87MG ATCC
[11] = Induction of apoptosis in human U87 cells assessed as necrotic cells at 20 uM incubated for 48 hrs by Annexin-V/PI staining based flow cytometry (Rvb= 1.13%); assay type: functional, U-87MG ATCC
[12] = biological target: T1, von Hippel-Lindau disease tumor suppressor/Platelet-derived growth factor receptor beta (Homo sapiens); assay: Protac activity at VHL/PDGFRbeta in human U87 cells assessed as reduction in PDGFRbeta protein level at 10 uM incubated for 4 to 16 hrs by Western blot analysis; assay type: cell-based; details: time 4-16 hrs
[13] = Induction of apoptosis in human U87 cells assessed as viable cells at 0.1 uM incubated for 48 hrs by Annexin-V/PI staining based flow cytometry (Rvb= 93.16%); assay type: functional, U-87MG ATCC; details: U-87 MG, read-out: Activity
[14] = Induction of apoptosis in human U87 cells assessed as viable cells at 1 uM incubated for 48 hrs by Annexin-V/PI staining based flow cytometry (Rvb= 93.16%); assay type: functional, U-87MG ATCC; details: U-87 MG, read-out: Activity
[15] = Induction of apoptosis in human U87 cells assessed as viable cells at 20 uM incubated for 48 hrs by Annexin-V/PI staining based flow cytometry (Rvb= 93.16%); assay type: functional, U-87MG ATCC; details: U-87 MG, read-out: Activity
[16] = biological target: T1, von Hippel-Lindau disease tumor suppressor/Platelet-derived growth factor receptor beta (Homo sapiens); assay: Protac activity at VHL/PDGFRbeta in human U87 cells assessed as reduction in PDGFRbeta protein level at 10 uM preincubated with sorafenib for 2hrs followed by compound treatment and measured after 48 hrs by Western blot analysis; assay type: cell-based
[17] = Induction of apoptosis in human U87 cells assessed as late apoptotic cells at 10 uM incubated for 48 hrs by Annexin-V/PI staining based flow cytometry (Rvb= 2.97%); assay type: functional, U-87MG ATCC
[18] = Induction of apoptosis in human U87 cells assessed as late apoptotic cells at 1 uM incubated for 48 hrs by Annexin-V/PI staining based flow cytometry (Rvb= 2.97%); assay type: functional, U-87MG ATCC
[19] = biological target: T1, von Hippel-Lindau disease tumor suppressor/Platelet-derived growth factor receptor beta (Homo sapiens); assay: Protac activity at VHL/PDGFRbeta in human U87 cells assessed as reduction in PDGFRbeta protein level at 10 uM preincubated with MG-132 for 2hrs followed by compound treatment and measured after 48 hrs by Western blot analysis; assay type: cell-based
[20] = Induction of apoptosis in human U87 cells assessed as late apoptotic cells at 5 uM incubated for 48 hrs by Annexin-V/PI staining based flow cytometry (Rvb= 2.97%); assay type: functional, U-87MG ATCC
[21] = Induction of apoptosis in human U87 cells assessed as early apoptotic cells at 10 uM incubated for 48 hrs by Annexin-V/PI staining based flow cytometry (Rvb= 2.74%); assay type: functional, U-87MG ATCC
[22] = test system: U-87MG ATCC; assay: Induction of cell cycle arrest in human U87 cells assessed increase of cells in S phase at 1 to 10 uM incubated for 48 hrs by flow cytometry; assay type: functional, cell-based; details: dose 1-10 µM
[23] = Induction of apoptosis in human U87 cells assessed as early apoptotic cells at 1 uM incubated for 48 hrs by Annexin-V/PI staining based flow cytometry (Rvb= 2.74%); assay type: functional, U-87MG ATCC
[24] = Induction of apoptosis in human U87 cells assessed as late apoptotic cells at 20 uM incubated for 48 hrs by Annexin-V/PI staining based flow cytometry (Rvb= 2.97%); assay type: functional, U-87MG ATCC
[25] = Induction of apoptosis in human U87 cells assessed as late apoptotic cells at 0.1 uM incubated for 48 hrs by Annexin-V/PI staining based flow cytometry (Rvb= 2.97%); assay type: functional, U-87MG ATCC
[26] = Induction of apoptosis in human U87 cells assessed as necrotic cells at 5 uM incubated for 48 hrs by Annexin-V/PI staining based flow cytometry (Rvb= 1.13%); assay type: functional, U-87MG ATCC
[27] = Induction of apoptosis in human U87 cells assessed as necrotic cells at 1 uM incubated for 48 hrs by Annexin-V/PI staining based flow cytometry (Rvb= 1.13%); assay type: functional, U-87MG ATCC
[28] = Induction of apoptosis in human U87 cells assessed as viable cells at 10 uM incubated for 48 hrs by Annexin-V/PI staining based flow cytometry (Rvb= 93.16%); assay type: functional, U-87MG ATCC; details: U-87 MG, read-out: Activity
[29] = Induction of apoptosis in human U87 cells assessed as necrotic cells at 0.1 uM incubated for 48 hrs by Annexin-V/PI staining based flow cytometry (Rvb= 1.13%); assay type: functional, U-87MG ATCC
[30] = Induction of apoptosis in human U87 cells assessed as viable cells at 5 uM incubated for 48 hrs by Annexin-V/PI staining based flow cytometry (Rvb= 93.16%); assay type: functional, U-87MG ATCC; details: U-87 MG, read-out: Activity
[31] = biological target: Serine/threonine-protein kinase B-raf (Homo sapiens) (UniProt P15056); assay: Protac activity at BRAF in human EA.hy 926 cells assessed decrease in BRAF level at 10 uM incubated for 72 hrs by Western blot analysis; assay type: cell-based
[32] = Induction of apoptosis in human U87 cells assessed as early apoptotic cells at 5 uM incubated for 48 hrs by Annexin-V/PI staining based flow cytometry (Rvb= 2.74%); assay type: functional, U-87MG ATCC
[33] = test system: U-87MG ATCC; assay: Induction of cell cycle arrest in human U87 cells assessed decrease of cells in G2 phase at 1 to 10 uM incubated for 48 hrs by flow cytometry; assay type: functional, cell-based; details: dose 1-10 µM
[34] = biological target: T1, von Hippel-Lindau disease tumor suppressor/Platelet-derived growth factor receptor beta (Homo sapiens); assay: Protac activity at VHL/PDGFRbeta in human U87 cells assessed as reduction in PDGFRbeta protein level at 10 uM preincubated with Leupeptin for 2hrs followed by compound treatment and measured after 48 hrs by Western blot analysis; assay type: cell-based
[35] = Induction of apoptosis in human U87 cells assessed as early apoptotic cells at 20 uM incubated for 48 hrs by Annexin-V/PI staining based flow cytometry (Rvb= 2.74%); assay type: functional, U-87MG ATCC
[36] = biological target: T1, von Hippel-Lindau disease tumor suppressor/Platelet-derived growth factor receptor beta (Homo sapiens); assay: Protac activity at VHL/PDGFRbeta in human U87 cells assessed as reduction in PDGFRbeta protein level at 10 uM preincubated with VH032 for 2hrs followed by compound treatment and measured after 48 hrs by Western blot analysis; assay type: cell-based
[37] = biological target: T1, von Hippel-Lindau disease tumor suppressor/Platelet-derived growth factor receptor beta (Homo sapiens); assay: Protac activity at VHL/PDGFRbeta in human U87 cells assessed as reduction in PDGFRbeta protein level at 10 uM preincubated with Carfilzomib for 2hrs followed by compound treatment and measured after 48 hrs by Western blot analysis; assay type: cell-based
[38] = Induction of apoptosis in human U87 cells assessed as necrotic cells at 10 uM incubated for 48 hrs by Annexin-V/PI staining based flow cytometry (Rvb= 1.13%); assay type: functional, U-87MG ATCC

Chain of Platelet-derived growth factor receptor beta (Homo sapiens) (P09619 whole entry): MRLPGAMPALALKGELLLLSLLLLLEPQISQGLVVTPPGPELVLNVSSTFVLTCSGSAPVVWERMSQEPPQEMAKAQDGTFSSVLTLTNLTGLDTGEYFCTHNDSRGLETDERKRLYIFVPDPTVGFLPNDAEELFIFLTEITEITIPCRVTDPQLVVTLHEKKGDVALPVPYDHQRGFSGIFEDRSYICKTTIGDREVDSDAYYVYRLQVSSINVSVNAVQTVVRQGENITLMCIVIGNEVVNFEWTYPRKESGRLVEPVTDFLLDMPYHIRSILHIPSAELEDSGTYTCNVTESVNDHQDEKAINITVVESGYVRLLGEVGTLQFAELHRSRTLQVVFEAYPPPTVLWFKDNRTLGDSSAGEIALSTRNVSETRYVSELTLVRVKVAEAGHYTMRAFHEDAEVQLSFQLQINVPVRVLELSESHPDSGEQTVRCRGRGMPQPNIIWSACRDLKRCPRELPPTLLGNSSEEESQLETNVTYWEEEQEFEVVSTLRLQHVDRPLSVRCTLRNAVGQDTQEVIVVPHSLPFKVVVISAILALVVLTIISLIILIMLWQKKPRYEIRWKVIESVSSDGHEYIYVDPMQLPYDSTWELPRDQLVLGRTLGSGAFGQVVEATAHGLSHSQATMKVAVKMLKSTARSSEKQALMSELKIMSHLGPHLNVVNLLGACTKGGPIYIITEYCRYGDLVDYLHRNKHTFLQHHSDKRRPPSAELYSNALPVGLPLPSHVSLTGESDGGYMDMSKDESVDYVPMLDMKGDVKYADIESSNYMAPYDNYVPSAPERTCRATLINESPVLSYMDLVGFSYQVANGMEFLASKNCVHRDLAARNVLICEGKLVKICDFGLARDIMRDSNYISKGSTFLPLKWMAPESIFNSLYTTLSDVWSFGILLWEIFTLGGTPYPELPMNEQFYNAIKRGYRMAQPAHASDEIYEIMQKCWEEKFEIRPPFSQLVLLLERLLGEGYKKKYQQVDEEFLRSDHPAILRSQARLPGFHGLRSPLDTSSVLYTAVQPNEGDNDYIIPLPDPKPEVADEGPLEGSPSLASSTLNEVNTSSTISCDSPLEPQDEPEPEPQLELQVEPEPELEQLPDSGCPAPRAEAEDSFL
T1 sequence (P09619 33-1106 limits assumed): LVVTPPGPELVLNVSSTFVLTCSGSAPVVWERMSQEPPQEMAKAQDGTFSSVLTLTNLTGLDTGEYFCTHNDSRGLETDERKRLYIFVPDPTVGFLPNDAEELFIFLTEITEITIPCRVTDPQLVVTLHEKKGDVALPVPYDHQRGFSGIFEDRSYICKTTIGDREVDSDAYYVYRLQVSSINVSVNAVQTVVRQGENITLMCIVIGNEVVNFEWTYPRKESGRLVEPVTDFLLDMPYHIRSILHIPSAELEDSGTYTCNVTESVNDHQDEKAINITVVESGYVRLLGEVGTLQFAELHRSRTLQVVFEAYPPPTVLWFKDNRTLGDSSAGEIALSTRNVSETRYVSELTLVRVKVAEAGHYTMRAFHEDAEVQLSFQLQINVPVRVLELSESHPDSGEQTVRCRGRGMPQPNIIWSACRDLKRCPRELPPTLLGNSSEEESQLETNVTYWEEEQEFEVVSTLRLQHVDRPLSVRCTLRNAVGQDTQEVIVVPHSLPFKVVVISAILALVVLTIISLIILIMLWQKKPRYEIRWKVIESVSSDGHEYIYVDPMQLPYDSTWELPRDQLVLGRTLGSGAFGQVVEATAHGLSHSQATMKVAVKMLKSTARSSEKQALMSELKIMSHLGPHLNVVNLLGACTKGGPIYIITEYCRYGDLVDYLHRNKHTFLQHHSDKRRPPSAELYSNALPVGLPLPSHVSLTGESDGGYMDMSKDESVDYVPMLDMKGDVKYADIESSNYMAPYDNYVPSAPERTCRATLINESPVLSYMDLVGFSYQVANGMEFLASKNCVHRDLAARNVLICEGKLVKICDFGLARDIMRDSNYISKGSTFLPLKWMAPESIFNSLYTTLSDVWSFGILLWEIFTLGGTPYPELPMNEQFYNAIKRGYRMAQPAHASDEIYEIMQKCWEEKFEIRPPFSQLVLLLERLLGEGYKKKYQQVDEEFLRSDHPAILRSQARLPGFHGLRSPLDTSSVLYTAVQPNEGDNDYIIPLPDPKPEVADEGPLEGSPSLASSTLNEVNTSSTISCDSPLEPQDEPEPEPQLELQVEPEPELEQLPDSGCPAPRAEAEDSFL
T1 sequence (P40337 whole entry partner): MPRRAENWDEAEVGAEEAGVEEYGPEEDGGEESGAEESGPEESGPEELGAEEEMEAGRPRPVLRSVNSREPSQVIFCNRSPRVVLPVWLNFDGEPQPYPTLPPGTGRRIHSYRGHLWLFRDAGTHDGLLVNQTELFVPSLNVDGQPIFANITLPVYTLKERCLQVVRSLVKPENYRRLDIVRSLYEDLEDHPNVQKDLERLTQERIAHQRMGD
Chain of Serine/threonine-protein kinase B-raf (Homo sapiens) (P15056 whole entry): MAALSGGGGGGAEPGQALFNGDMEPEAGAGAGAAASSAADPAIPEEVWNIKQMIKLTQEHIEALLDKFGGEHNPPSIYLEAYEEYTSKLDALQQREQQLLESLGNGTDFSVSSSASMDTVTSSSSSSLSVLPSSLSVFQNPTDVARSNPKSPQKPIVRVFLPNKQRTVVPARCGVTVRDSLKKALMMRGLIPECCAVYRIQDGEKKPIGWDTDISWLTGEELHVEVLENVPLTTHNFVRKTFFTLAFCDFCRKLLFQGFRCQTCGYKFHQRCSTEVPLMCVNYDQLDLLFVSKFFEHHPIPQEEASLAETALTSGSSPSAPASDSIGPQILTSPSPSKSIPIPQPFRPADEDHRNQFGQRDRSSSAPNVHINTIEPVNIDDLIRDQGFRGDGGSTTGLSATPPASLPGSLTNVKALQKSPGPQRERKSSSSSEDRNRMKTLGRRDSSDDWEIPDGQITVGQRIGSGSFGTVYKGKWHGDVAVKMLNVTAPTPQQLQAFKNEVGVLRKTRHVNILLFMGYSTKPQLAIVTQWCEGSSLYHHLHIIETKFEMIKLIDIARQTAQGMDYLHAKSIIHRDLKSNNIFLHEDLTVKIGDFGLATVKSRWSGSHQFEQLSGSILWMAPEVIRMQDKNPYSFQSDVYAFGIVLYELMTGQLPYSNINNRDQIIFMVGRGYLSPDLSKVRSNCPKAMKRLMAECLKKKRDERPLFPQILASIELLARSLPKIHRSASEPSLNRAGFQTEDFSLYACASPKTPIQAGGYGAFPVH

- IC50 [1]: 39 nM
- Activity [3]: Dose-Dependent Effect
- Activity [5]: Active
- Activity [6]: > 70%
- Activity [7]: Active
Structure (SMILES): O=C1CCC(N2Cc3c(NC(=O)CCCNC(=O)c4cc(Oc5ccc(NC(=O)Nc6ccc(Cl)c(C(F)(F)F)c6)cc5)ccn4)cccc3C2=O)C(=O)N1 (stereo unspecified)
- IC50 [2]: 13.4 µM
- Activity [4]: Non-Toxic

- Activity [12]: Dose-Dependent Effect
- Activity [16]: Active
- Activity [3]: Dose-Dependent Effect
- Activity [19]: inactive
- Activity [5]: Active
- Activity [9]: Active
- Activity [31]: Active
- Activity [6]: > 70%
- Activity [34]: inactive
- Activity [36]: Active
- Activity [37]: Active
- Activity [7]: Active
Structure (SMILES): Cc1ncsc1-c1ccc(CNC(=O)[C@@H]2C[C@@H](O)CN2C(=O)[C@@H](NC(=O)CCCNC(=O)c2cc(Oc3ccc(NC(=O)Nc4ccc(Cl)c(C(F)(F)F)c4)cc3)ccn2)C(C)(C)C)cc1
- Activity [10]: 2.02%
- Activity [11]: 1.63%
- viability at 0.1 µM [13]: 95.3%
- viability at 1 µM [14]: 96.2%
- viability at 20 µM [15]: 90.6%
- Activity [17]: 2.03%
- Activity [18]: 1.71%
- Activity [4]: Non-Toxic
- Activity [20]: 1.59%
- Activity [21]: 2.49%
- Activity [22]: Active
- Activity [23]: 1.66%
- IC50 [8]: 12.3 µM
- Activity [24]: 4.56%
- Activity [25]: 1.82%
- Activity [26]: 0.63%
- Activity [27]: 0.49%
- viability at 10 µM [28]: 94.6%
- Activity [29]: 0.89%
- viability at 5 µM [30]: 96.1%
- Activity [32]: 1.66%
- Activity [33]: Active
- Activity [35]: 3.25%
- Activity [38]: 0.85%

- IC50 [1]: 2690 nM
Structure (SMILES): CNC(=O)c1cc(Oc2ccc(NC(=O)Nc3ccc(Cl)c(C(F)(F)F)c3)cc2)ccn1 [SORAFENIB]
- IC50 [2]: 11 µM
- Activity [4]: Non-Toxic
- IC50 [8]: 12.7 µM

Second part, the compound before the results:

Structure (SMILES): Cc1ncsc1-c1ccc(CNC(=O)[C@@H]2C[C@H](O)CN2C(=O)[C@@H](NC(=O)CCCNC(=O)c2cc(Oc3ccc(NC(=O)Nc4ccc(Cl)c(C(F)(F)F)c4)cc3)ccn2)C(C)(C)C)cc1
- IC50 [1]: > 50000 nM
- IC50 [2]: > 50 µM
- IC50 [8]: 20.3 µM
- Activity [9]: inactive

Structure (SMILES): O=C(CNc1cccc2c1C(=O)N(C1CCC(=O)NC1=O)C2=O)NCCCCNC(=O)c1cc(Oc2ccc(NC(=O)Nc3ccc(Cl)c(C(F)(F)F)c3)cc2)ccn1 (stereo unspecified)
- Activity [3]: Dose-Dependent Effect
- Activity [4]: Non-Toxic
- Activity [5]: Active
- Activity [6]: > 70%
- Activity [7]: Active
